Reference: article PMC5007466, “VCP recruitment to mitochondria causes mitophagy impairment and neurodegeneration in models of Huntington's disease” (Nature Communications, 2016)
Entries after “also recorded” stand apart in the source; their conditions may differ.

Key:
VCP/mtHtt interaction = biological target: T1, VCP/mtHtt interaction (Homo sapiens, UniProt P55072); experiment: Co-immunoprecipitation of GFP-VCP and Myc-73Q FL (mtHtt) in HEK293 cells; format: cell-based; settings: HEK293, Myc-73Q FL + GFP-VCP, 48 h
T1 construct: The full-length VCP wt and GFP-LC3B plasmids were obtained from Addgene; expressed in transfected cells; host or cells: HEK293
Description: (b) Stick drawings of VCP and Htt main domains. […] Immunoprecipitates were analysed by WB with the indicated antibodies. […] VCP mitochondrial levels were determined by WB. Loading control: VDAC. Data are mean±s.e.m. (g–i) ANOVA with Holm-Sidak post hoc test.
Myc-tagged full-length Htt with 23Q or 73Q plasmid was obtained from the CHDI foundation. The full-length VCP wt and GFP-LC3B plasmids were obtained from Addgene. To construct the mitochondria-targeting VCP plasmid, CMV-mito-GEM-GECO1 was digested with BamHI and HindIII, and VCP was PCR-amplified and inserted into the plasmid backbone. Site mutation of the VCP plasmid was performed using a site-mutagenesis kit (Agilent Technologies, Inc.). Cells were transfected with TransIT-2020 (Mirus Bio, LLC) following the manufacturer's protocol.
Human cervix carcinoma cells (HeLa cells) and HEK293 cells were maintained in DMEM supplemented with 10% FBS and 1% (v/v) penicillin/streptomycin.
Supplementary Figure 4: Rational design of a peptide inhibitor to block VCP/Htt interaction. […] Quantitation of VCP/Htt binding was shown below the blot as the m ean of three independent experiments. […] The blots of the bindings of mtHtt/VCP were quantitated with NIH Image J software. The IC50 was calculated. […]

[1] = system: HdhQ111 mouse striatal cells; experiment: Mitochondrial length and mitophagosomes by electron microscopy; format: cell-based; settings: 3 uM/day for 3 days, EM
Text: The HdhQ7 and HdhQ111 cells were fixed by 2.5% glutaraldehyde in 0.1 M cacodylate buffer. Small pieces of the striata tissue of mice were fixed by immersion in triple aldehyde-DMSO. After rinsing in 0.1 M phosphate buffer (pH 7.3), the samples were post-fixed in ferrocyanide-reduced osmium tetroxide.
The above fixed samples were rinsed by water followed by overnight soaking in acidified uranyl acetate. After rinsing in distilled water, the blocks were dehydrated in ascending concentrations of ethanol, passed through propylene oxide, and embedded in Poly/Bed resin. Thin sections were sequentially stained with acidified uranyl acetate followed by a modification of Sato's triple lead stain. These sections were examined in a FEI Tecnai Spirit (T12) transmission electron microscope with a Gatan US4000 4kx4k CCD at the Case Western Reserve University EM core facility. Mitochondria from 15 random areas in each group were imaged by an experimenter blind to the experimental groups. The length of mitochondria was measured by NIH Image J software. The number of mitophagosomes per 100 μm^2 was counted. The number of gold particles labelling VCP on mitochondria were quantitated.

R6/2 mice [2] = experiment: Hindlimb clasping (tail suspension test); format: in vivo, mouse; settings: R6/2, 8 to 11 weeks of age, 3 mg kg^−1 per day, n=15, versus TAT
Description: (§1) Male hemizygous R6/2 mice (Tg) and their age-matched wt littermates (5-week-old) were implanted with a 28-day osmotic pump (Alzet, Cupertino CA) containing TAT control peptide or HV-3 peptide, which delivered peptides to the mice at a rate of 3 mg kg^−1 per day. The first pump was implanted subcutaneously in the back of 5-week-old mice between the shoulders and replaced once, after 4 weeks.
Hindlimb clasping was assessed with the tail suspension test once a week from the ages 8 to 11 weeks in R6/2 mice. Mice were suspended by the tail for 60 s and the latency for the hindlimbs or all four paws to clasp was recorded using the score system[67]: Clasping over 10 s, score 3; 5–10 s, score 2; 0–5 s, score 1; 0 s, score 0.

R6/2 mice [3] = experiment: DARPP-32 protein level in R6/2 striatal extracts; format: in vivo, mouse; settings: 3 mg kg^−1 per day, n=6
Description: as §1
(§2) Protein concentrations were determined by Bradford assay. Protein was resuspended in Laemmli buffer, loaded on SDS–PAGE, and transferred onto nitrocellulose membranes. Membranes were probed with the indicated antibodies, followed by visualization with ECL. Representative blots have been cropped for presentation. Images of full-size blots are presented in Supplementary Fig. 9.

YAC128 mice = experiment: DARPP-32 protein level in YAC128 striatal extracts; format: in vivo, mouse; settings: 3 mg/kg/day, n=6
Description: YAC128 mice (Tg) and their age-matched wt littermates were implanted with an osmotic pump containing TAT control peptide or HV-3 peptide (3 mg/kg/day, each) starting from the age of 3 months. The pump was replaced once every month. By the age of 12 months, the treatments were terminated and the mouse samples were harvested for analysis.
as §2

CSCC[C@H](NC(=O)[C@@H](NC(=O)[C@H](CC(C)C)NC(=O)[C@@H](NC(=O)[C@H](Cc1c[nH]cn1)NC(=O)CCCCCNC(=O)[C@H](CCCNC(=N)N)NC(=O)[C@H](CCCNC(=N)N)NC(=O)[C@H](CCCNC(=N)N)NC(=O)[C@H](CCC(N)=O)NC(=O)[C@H](CCCNC(=N)N)NC(=O)[C@H](CCCNC(=N)N)NC(=O)[C@H](CCCCN)NC(=O)[C@H](CCCCN)NC(=O)[C@H](CCCNC(=N)N)NC(=O)CNC(=O)[C@@H](N)Cc1ccc(O)cc1)C(C)C)C(C)C)C(=O)N[C@@H](CS)C(=O)N[C@@H](C)C(=O)N[C@H](C(N)=O)[C@@H](C)O [HV-3] was tested, and the IC50 (VCP/mtHtt interaction; 0 to 4 µM, IP/WB quantitated, read-out: IC50 blocking VCP/mtHtt interaction) was 2.11 µM, the “block of VCP/mtHtt interaction” value (VCP/mtHtt interaction; 3 µM/day, n = 3) was “only HV-3 peptide significantly blocked the VCP/mtHtt interaction” and the mitochondrial length [1] was “increased mitochondrial length”. The number of mitophagosomes [1] was “reduced this accumulation; also recorded: greatly reduced the accumulation of mitophagosomes”, the “severity of clasping behaviour” value (R6/2 mice [2]) was “significantly lower over the 4-week observation period” and the DARPP-32 protein level (R6/2 mice [3]) was “significantly increased DARPP-32 levels in the two mouse models”. For the same molecule, the DARPP-32 protein level (YAC128 mice) was “significantly increased DARPP-32 levels in the two mouse models”.
